Results taken from ChEMBL document CHEMBL1201862, “PubChem BioAssay data set” (2004).
The source made the active and inactive calls.

How the values were obtained:
[1] = target: T1, Short transient receptor potential channel 4 (Mus musculus, UniProt Q9QUQ5); test: calcium entry via TRPC4 opening agents – cell-based, HEK293 TRPC4/mu-opioid, Fluo-4 calcium, dose response (AID 434937); assay type: functional
T1 sequence (Q9QUQ5 whole entry): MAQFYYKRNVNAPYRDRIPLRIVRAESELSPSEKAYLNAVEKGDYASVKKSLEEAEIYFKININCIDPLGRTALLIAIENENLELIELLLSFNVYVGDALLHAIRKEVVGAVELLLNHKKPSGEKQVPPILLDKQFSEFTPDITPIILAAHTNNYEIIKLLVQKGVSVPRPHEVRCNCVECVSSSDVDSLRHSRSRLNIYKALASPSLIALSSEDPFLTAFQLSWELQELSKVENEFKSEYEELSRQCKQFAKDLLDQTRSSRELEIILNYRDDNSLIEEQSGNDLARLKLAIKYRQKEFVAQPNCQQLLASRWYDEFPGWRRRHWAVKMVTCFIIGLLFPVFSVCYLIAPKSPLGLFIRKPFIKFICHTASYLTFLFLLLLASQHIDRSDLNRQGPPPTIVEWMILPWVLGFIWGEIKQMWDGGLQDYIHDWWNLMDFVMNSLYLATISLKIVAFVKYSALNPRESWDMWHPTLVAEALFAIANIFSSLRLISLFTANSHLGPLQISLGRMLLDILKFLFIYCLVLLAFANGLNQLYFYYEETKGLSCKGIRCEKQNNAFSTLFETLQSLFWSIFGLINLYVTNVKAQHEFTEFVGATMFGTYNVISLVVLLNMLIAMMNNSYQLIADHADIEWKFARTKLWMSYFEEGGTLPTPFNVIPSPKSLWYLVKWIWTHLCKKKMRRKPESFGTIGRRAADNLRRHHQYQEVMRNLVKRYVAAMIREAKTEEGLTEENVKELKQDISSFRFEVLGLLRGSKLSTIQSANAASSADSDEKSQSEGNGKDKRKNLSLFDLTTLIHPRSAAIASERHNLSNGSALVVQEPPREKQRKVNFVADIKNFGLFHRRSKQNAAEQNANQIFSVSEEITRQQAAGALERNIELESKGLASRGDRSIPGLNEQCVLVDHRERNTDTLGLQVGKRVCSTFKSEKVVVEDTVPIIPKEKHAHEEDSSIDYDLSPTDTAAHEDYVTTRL

cells [2] = assay type: functional, cell-based
cells [3] = assay type: functional, cell-based; remark: listed apart in the source
[4] = target: T2, Heat shock factor protein 1 (Mus musculus, UniProt P38532); test: enhancement of HSF1-driven luciferase signal – cell-based, NIH3T3, luminescence, dose retest, confirmation (AID 435004); assay type: functional;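 note: stress induced by proteasome inhibitor MG132 added 30 min after compound; luciferase reporter driven by HSF1 response element in NIH3T3 cells; actives raise luminescence as potentiators of the MG132 stress response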
T2 sequence (P38532 whole entry): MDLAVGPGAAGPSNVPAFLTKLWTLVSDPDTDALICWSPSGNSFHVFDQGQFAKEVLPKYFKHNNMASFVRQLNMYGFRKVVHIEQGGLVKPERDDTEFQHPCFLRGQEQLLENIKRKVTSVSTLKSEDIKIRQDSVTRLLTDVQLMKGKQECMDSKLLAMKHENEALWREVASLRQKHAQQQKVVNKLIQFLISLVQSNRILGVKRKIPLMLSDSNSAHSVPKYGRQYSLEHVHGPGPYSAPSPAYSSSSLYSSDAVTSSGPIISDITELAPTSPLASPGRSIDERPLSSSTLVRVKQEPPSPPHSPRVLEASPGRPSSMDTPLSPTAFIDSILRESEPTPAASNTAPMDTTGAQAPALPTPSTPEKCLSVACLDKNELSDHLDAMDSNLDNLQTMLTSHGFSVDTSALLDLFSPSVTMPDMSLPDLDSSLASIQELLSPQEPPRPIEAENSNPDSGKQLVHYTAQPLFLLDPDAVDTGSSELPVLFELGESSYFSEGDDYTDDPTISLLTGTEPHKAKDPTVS

[5] = viability of HCT116 lacking mutant beta-catenin – cell-based, human colon tumor, dose response (AID 1045); assay type: functional;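 note: HCT116 colon tumor cells with beta catenin knocked out; cells exposed to compound for 60 hours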
[6] = viability of PTEN-deleted HCT116 cells – cell-based, HCT116 PTEN knockout, dose response (AID 1047); assay type: functional;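 note: HCT116 colon tumor cells with PTEN knocked out; cells exposed to compound for 60 hours before readout; potency for loss of cell viability measured by luminescence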
[7] = target: T1, Short transient receptor potential channel 4; test: block of DAMGO-driven TRPC4 calcium entry – cell-based, HEK293 TRPC4/mu-opioid, Fluo-4 calcium, dose response (AID 434942); assay type: functional;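 note: potency of inhibitors blocking the TRPC4 calcium response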
Paired box protein Pax-8 = Paired box protein Pax-8 (Homo sapiens, UniProt Q06710); test: PAX8 transcriptional activity inhibition in RMG-I – RMG-I cells, luciferase, cherry-pick, dose response (AID 687027); assay type: functional, cell-based;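 note: luciferase reporter driven by Pax8 target thyroperoxidase promoter measured by SteadyGlo luminescence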
[8] = OVCAR8 cell viability loss – plate reader, dry powder samples, PAX8 project, dose response (AID 743197); assay type: functional, cell-based; details: OVCAR-8
[9] = target: T3, Corticotropin-releasing factor receptor 2/Corticotropin-releasing factor-binding protein (Homo sapiens, UniProt P24387+Q13324); test: activators of CRF receptor 2 with binding protein – uHTS hits, confirmation (AID 602473); assay type: functional; details: read-out: EC50_Mean
T3 sequence (Q13324 whole entry): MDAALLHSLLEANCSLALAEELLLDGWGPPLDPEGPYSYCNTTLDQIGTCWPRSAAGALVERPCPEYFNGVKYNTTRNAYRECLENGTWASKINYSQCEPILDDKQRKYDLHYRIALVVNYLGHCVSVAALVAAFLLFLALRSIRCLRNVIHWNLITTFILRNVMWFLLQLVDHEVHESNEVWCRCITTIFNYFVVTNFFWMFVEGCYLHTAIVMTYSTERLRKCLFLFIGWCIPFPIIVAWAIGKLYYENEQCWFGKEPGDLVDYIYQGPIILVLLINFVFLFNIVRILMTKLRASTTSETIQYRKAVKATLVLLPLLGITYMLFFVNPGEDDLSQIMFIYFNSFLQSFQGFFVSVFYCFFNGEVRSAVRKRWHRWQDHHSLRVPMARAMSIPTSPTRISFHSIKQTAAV
T3 sequence (P24387 whole entry): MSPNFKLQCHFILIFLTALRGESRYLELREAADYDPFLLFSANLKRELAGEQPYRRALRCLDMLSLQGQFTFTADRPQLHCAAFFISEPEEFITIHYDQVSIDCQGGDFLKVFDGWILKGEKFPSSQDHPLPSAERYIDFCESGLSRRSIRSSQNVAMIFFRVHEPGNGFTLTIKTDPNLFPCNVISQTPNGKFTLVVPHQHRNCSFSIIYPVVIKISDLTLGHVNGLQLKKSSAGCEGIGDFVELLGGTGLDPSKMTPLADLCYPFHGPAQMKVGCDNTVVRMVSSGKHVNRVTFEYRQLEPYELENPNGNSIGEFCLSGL

[10] = target: T4, DNA repair protein RAD52 homolog (Homo sapiens, UniProt P43351); assay type: functional, biochemical
T4 sequence (P43351 whole entry): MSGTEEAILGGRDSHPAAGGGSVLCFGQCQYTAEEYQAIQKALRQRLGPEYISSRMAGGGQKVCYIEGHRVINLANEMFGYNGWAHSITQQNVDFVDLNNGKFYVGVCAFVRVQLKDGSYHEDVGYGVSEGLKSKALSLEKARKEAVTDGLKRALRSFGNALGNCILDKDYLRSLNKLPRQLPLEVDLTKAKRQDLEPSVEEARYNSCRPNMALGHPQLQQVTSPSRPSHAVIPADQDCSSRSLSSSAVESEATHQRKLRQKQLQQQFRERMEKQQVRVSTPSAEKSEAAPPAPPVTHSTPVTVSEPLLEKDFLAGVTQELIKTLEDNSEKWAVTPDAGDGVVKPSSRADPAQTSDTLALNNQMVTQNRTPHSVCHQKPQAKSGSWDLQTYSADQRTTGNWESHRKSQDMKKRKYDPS

[11] = target: T5, Ubiquitin-conjugating enzyme E2 N (Homo sapiens, UniProt P61088); assay type: functional;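 note: Dose-response confirmation in a TR-FRET assay detecting UBC13-driven polyubiquitin chain formation, inhibition measured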
T5 sequence (P61088 whole entry): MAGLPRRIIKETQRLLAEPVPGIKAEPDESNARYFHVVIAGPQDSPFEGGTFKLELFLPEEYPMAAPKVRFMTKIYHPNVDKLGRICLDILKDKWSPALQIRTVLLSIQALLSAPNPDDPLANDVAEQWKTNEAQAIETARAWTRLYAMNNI

Chain of Paired box protein Pax-8 (Q06710 whole entry): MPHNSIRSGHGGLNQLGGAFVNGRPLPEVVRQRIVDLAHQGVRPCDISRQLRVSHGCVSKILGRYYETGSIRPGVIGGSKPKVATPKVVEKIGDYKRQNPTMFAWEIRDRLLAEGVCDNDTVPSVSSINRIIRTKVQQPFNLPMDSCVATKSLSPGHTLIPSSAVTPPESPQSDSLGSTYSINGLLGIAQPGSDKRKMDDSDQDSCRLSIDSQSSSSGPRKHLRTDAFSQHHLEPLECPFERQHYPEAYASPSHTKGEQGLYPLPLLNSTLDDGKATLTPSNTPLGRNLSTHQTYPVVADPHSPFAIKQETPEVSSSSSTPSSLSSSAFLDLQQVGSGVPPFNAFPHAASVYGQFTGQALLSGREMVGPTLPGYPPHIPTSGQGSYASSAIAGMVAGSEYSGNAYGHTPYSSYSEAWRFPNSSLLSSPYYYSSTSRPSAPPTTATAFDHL

Compound: CCCCN(C)CCCNC(=O)CN1N=C(c2ccc(Cl)cc2)CCC1=O
- EC50 [1]: 0.596 µM (active)

Compound: CCCn1c(O)cc(=O)nc1SCC(=O)N1CCc2ccccc2C1
- EC50 (cells [2]): > 29.9 µM (inactive)
- IC50 (cells [3]): > 29.9 µM (inactive)

Compound: Fc1ccc(-c2nnc3ccc(N4CCc5ccccc5C4)nn23)cc1
- EC50 [4]: > 260 µM (inactive)
- EC50 [5]: 54 µM (active)
- EC50 [6]: 40.1 µM (active)

Compound: COc1ccc(C2C(C(C)=O)=C(O)C(=O)N2c2ccc(Br)cc2)cc1 (centres undefined)
- EC50 [7]: 0.668 µM (active)

Compound: C[C@@H]1CCCCO[C@@H](CN(C)S(=O)(=O)c2cccs2)[C@H](C)CN([C@H](C)CO)C(=O)c2cc(NC(=O)Nc3ccc(C(F)(F)F)cc3)ccc2O1
- AC50 (Paired box protein Pax-8): 3.17 µM (active)
- AC50 [8]: > 70 µM (inactive)

Compound: COc1cc(C(=O)NC(=S)NNC(=O)[C@H]2C[C@@H]2c2ccccc2)cc(OC)c1OC
- EC50 [1]: 3.76 µM (active)

Compound: COc1ccccc1CNCC(c1ccccc1)c1ccccc1
- EC50 [4]: > 260 µM (inactive)
- EC50 [7]: 4.73 µM (active)

Compound: OCC1(Cc2ccccc2)CCCN(Cc2cnn(-c3ccccc3)c2)C1 (centres undefined)
- EC50 [7]: 4.22 µM (active)

Compound: CCOc1ccccc1N(CC(=O)N1CCOCC1)S(=O)(=O)c1ccccc1
- EC50 [7]: 6.68 µM (active)
- EC50 [1]: 5.31 µM (active)
- EC50 [9]: 8.04 µM (active)

Compound: Cc1cccc(-c2nc3ccc(C(=O)NCCN4CCN(C)CC4)cc3nc2-c2cccc(C)c2)c1
- AC50 [10]: 9.79 µM (active)
- IC50 [11]: > 20 µM (inactive)

Compound: COc1ccc(CNCCc2ccc3c(c2)OCO3)cc1Br
- EC50 [1]: 3.76 µM (active)
